Measured values taken from publication PMC6003606 (Chemical Science, 2016).
Where two headings read alike, the source gives them in different places.

How the values were obtained:
[1] = test system: HDAC activity in MCF-7 cells; details: free ligand; reported values, no reference given; cited from earlier work
[2] = test system: cancer cell lines (panel); assay: Cytotoxicity averaged or compared over the cancer cell line panel; format: cell-based, human; details: for IC50: read-out: average IC50
A498 = assay: Cytotoxicity, 72 h exposure, kidney carcinoma; format: cell-based, human; details: A498, 72 h exposure
A375 = assay: Cytotoxicity, 72 h exposure, melanoma; format: cell-based, human; details: A375, 72 h exposure
A549 = assay: Cytotoxicity, 72 h exposure, lung carcinoma; format: cell-based, human; details: A549, 72 h exposure
HCT-15 = assay: Cytotoxicity, 72 h exposure, colon carcinoma; format: cell-based, human; details: HCT-15, 72 h exposure
A2780 = assay: Cytotoxicity, 72 h exposure, cisplatin-sensitive ovarian cancer cells; format: cell-based, human; details: A2780, 72 h exposure
MCF-7 = assay: Cytotoxicity, 72 h exposure, breast carcinoma; format: cell-based, human; details: MCF-7, 72 h exposure
BxPC3 = assay: Cytotoxicity, 72 h exposure, pancreatic carcinoma; format: cell-based, human; details: BxPC3, 72 h exposure
A2780cisR = assay: Cytotoxicity, 72 h exposure, cisplatin-resistant ovarian cancer cells; format: cell-based, human
PC3 = assay: Cytotoxicity, 72 h exposure, prostate carcinoma; format: cell-based, human; details: PC3, 72 h exposure
[3] = average over the seven cancer cell lines
[4] = average over five cancer cell lines

Molecule	IC50 of extracellular ligand for cellular HDAC activity [1]	cytotoxic IC50 of uncoordinated HDAC inhibitor ligands ([2]; tested cancer cell lines)	IC50 (A498) [µM]	IC50 (A375) [µM]	IC50 (A549) [µM]	IC50 (HCT-15) [µM]	IC50 (A2780) [µM]	IC50 (MCF-7) [µM]	IC50 [2, 3] [µM]	IC50 ([2]; over the nine cell lines) [µM]	IC50 (BxPC3) [µM]	IC50 (A2780cisR) [µM]	IC50 (PC3) [µM]	IC50 [2, 4] [µM]
CCCC(CCC)C(=O)O [VPA, valproate]	mM range	millimolar range	–	–	–	–	–	–	–	–	–	–	–	–
N.N.[Cl][Pt][Cl] [cisplatin]	–	–	17.5 ± 1.21	4.03 ± 0.95	8.35 ± 0.87	11.3 ± 1.06	2.8 ± 0.2	17.4 ± 0.2	10.3	9.9	11.4 ± 1.14	13.8 ± 0.2	2.25 ± 0.82	–
[Pt(DACH)(OH)2(ox)]	–	–	24.4 ± 5.35	6.85 ± 1.55	26.1 ± 2.89	18.9 ± 3.18	–	19.9 ± 1.41	–	–	14.3 ± 2.09	–	5.85 ± 1.08	13.2
O=C1[O][Pt]2([NH][C@@H]3CCCC[C@H]3[NH]2)[O]C1=O [oxaliplatin]	–	–	7.94 ± 1.04	6.3 ± 1.11	1.46 ± 0.31	1.15 ± 0.43	0.52 ± 0.27	3.36 ± 0.2	4.2	–	4.15 ± 0.93	4.2 ± 1.6	5.24 ± 0.86	–
N.N.[Cl-].[Cl-].[OH-].[OH-].[Pt+4] [IX, ctc-[Pt(NH3)2(OH)2Cl2]]	–	–	22 ± 0.85	1.93 ± 0.75	22.5 ± 4.54	15.3 ± 3.23	–	11.5 ± 3.71	–	–	6.23 ± 1.47	–	2.98 ± 1.35	7
